Measured values reported in US20070238765A1, “Heterocyclic GABAA subtype selective receptor modulators” (Roche Palo Alto LLC, priority 2006, published 2007).
Where a name gives a salt, the structure may show the parent alone.

Tests used:
GABAA α1β2γ2 = target: T1, GABAA α1β2γ2 (Homo sapiens, UniProt P14867+P18507+P47870); experiment: 35S-TBPS binding assay, HEK293 membranes with GABAA α1β2γ2 construct; conditions: 35S-TBPS 5 nM, GABA 1 μM, 2 hours at room temperature, read-out: α1β2γ2 (35S-TBPS binding, pIC50) (converted)
T1 construct: expressed in transfected cells; host or cells: HEK293
T1 sequence (P14867 28-456): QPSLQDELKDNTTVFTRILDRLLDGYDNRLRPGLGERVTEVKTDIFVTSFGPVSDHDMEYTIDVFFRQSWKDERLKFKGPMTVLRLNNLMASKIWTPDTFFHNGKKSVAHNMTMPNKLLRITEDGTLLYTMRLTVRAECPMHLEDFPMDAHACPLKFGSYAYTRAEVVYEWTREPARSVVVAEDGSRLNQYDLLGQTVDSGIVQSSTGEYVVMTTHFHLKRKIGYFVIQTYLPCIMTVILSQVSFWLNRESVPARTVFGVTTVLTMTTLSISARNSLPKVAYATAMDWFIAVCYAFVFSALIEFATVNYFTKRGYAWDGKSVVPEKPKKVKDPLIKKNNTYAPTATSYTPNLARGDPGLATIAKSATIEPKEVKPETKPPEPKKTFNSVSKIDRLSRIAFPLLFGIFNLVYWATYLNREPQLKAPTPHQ
T1 sequence (P47870 25-512 limits assumed): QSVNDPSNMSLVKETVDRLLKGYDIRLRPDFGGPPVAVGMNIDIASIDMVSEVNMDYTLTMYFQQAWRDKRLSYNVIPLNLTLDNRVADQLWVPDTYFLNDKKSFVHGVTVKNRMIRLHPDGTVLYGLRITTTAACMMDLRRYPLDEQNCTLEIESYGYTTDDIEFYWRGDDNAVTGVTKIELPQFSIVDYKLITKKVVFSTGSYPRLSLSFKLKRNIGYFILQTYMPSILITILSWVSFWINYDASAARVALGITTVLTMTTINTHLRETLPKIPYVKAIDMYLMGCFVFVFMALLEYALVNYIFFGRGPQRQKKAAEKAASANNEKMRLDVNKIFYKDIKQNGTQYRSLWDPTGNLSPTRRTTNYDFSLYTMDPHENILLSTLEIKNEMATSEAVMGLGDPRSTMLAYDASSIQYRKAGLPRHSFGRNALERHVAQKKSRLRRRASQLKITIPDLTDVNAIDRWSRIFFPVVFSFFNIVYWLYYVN
T1 sequence (P18507 40-475): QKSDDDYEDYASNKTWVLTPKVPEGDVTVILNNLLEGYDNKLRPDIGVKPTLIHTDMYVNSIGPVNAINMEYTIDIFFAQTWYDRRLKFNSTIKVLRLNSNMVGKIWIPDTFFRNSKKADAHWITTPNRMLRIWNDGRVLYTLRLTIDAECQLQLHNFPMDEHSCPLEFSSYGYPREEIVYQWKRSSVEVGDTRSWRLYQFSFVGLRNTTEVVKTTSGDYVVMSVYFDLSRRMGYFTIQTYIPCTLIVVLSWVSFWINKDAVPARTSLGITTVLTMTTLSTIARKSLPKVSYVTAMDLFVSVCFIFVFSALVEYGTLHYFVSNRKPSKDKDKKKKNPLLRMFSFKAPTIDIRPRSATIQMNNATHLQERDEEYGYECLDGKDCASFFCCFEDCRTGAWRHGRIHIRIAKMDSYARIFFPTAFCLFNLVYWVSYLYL
Description: (§1) The binding assay is based on the assay reported by K. Gee et al., Eur. J. Pharmacol. 1987, 136, 419-423.
(§2) Homogenate preparation: Membrane preparations of HEK293 cells containing either GABAA α1β2γ2 or GABAA α2β3γ2 constructs were performed according to a modified procedure previously described by Gee et al. (supra). Whole HEK 293 cells in D-PBS (calcium/magnesium free) buffer adjusted to pH 7.4 were centrifuged at 7,280×g for 20 m. After discarding the supernatant, the pellet was resuspended in the buffer and centrifuged at 1,820×g for 10 m. Afterwards, the supernatant was discarded and the pellet resuspended in ice-cold preparation buffer (50 mM Tris HCl pH 7.4, 4° C. and 150 mM KCl), homogenized for 30 sec using a Brinkmann Polytron PT3000 (setting 6) and centrifuged at 48,000×g for 30 m at 4° C. The centrifugation and homogenization procedure was repeated two more times for a total of 3 times before resuspending the membranes at a final protein concentration of 0.5 mg/mL. Aliquots (30 mL) of the final membrane preparation were then centrifuged at 48,000×g for 30 m, and the resulting pellets were stored at −80° C. until required.
(§3) 35S-TBPS binding assay. Membrane pellets containing either GABAA α1β2γ2 or GABAA α2β3γ2 constructs were thawed on ice, resuspended in 10 mL of 50 mM Tris HCl pH7.4, 4° C. and 150 mM KCl and centrifuged at 48,000×g, 30 m at 4° C. After discarding the supernatant, the pellet was resuspended in 30 mL incubation buffer (50 mM Tris HCl pH 7.4, 25° C. and 150 mM KCl) at approximately 0.5 mg/mL protein concentration. In 35S-TBPS competition studies, HEK293 membranes were incubated with 35S-TBPS (5 nM final) and GABA (1 μM) in the absence or presence of competitor at concentrations ranging from 0.01 nM to 10 μM in 125 μL incubation buffer for 2 hours at room temperature (˜22° C.). Non-specific binding was assayed with picrotoxin (100 μM final concentration). The binding reaction was terminated by vacuum filtration through GF/B filters previously soaked in 0.1% polyethylenimine followed by 3×1 mL washes with ice cold wash buffer (50 mM Tris HCl pH7.4, 4° C. and 150 mM KCl). Measurement of bound radioactivity was performed using a Packard Microplate 96 well topcount scintillation counter. Analysis of competition curves and estimation of pIC50 values of test compounds were performed using the software programs ActivityBase and/or Prism (version 3.0).

GABAA α2β3γ2 = target: T2, GABAA α2β3γ2 (Homo sapiens, UniProt P18507+P28472+P47869); experiment: 35S-TBPS binding assay, HEK293 membranes with GABAA α2β3γ2 construct; conditions: 35S-TBPS 5 nM, GABA 1 μM, 2 hours at room temperature, read-out: α2β3γ2 (35S-TBPS binding, pIC50) (converted)
T2 construct: expressed in transfected cells; host or cells: HEK293
T2 sequence (P47869 29-451): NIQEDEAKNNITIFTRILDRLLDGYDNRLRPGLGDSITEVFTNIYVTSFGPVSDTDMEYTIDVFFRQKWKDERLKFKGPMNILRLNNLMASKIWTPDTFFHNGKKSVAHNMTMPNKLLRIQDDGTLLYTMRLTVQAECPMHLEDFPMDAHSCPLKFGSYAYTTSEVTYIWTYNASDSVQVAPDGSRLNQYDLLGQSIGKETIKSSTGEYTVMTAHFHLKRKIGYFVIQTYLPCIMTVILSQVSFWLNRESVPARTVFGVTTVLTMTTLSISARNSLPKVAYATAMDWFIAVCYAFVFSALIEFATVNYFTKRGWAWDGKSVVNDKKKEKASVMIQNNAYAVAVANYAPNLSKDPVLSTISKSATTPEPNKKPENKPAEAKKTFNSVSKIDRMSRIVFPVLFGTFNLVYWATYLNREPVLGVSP
T2 sequence (P28472 26-473): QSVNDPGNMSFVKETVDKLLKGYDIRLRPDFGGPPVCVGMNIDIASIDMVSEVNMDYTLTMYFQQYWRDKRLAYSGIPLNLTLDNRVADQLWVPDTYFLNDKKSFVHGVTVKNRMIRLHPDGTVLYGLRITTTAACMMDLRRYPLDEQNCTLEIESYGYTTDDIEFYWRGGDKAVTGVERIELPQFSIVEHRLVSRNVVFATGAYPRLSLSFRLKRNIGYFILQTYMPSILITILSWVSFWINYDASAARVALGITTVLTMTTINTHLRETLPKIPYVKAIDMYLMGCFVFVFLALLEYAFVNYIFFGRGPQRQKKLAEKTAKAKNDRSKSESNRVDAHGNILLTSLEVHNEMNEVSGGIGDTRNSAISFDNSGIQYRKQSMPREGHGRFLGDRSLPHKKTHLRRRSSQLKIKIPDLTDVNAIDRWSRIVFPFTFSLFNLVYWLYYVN
T2 sequence (P18507 40-475): as the sequence (P18507 40-475) above
Description: as §1, §2, §3

Row | IC50 (GABAA α1β2γ2) [µM] | IC50 (GABAA α2β3γ2) [µM] | melting point [°C] | SMILES
1 | > 10 | 2.69 | – | CCOC(=O)Cc1nnnn1Cc1c2cccc(-c3ccc(Cl)cc3Cl)c2nn1C [I-7, {1-[7-(2,4-Dichloro-phenyl)-2-meth-yl-2H-indazol-3-yl-methyl]-1H-tetrazol-5-yl}-aceticacid ethyl ester]
2 | > 10 | > 10 | – | Cn1nc2c(-c3ccc(Cl)cc3Cl)cccc2c1Cc1nnnn1CS(C)(=O)=O [I-9, 7-(2,4-Dichloro-phenyl)-3-(1-meth-anesulfonylmethyl-1H-tetra-zol-5-ylmethyl)-2-meth-yl-2H-indazole]
3 | 4.79 | 0.832 | – | CCOC(=O)c1nccn1Cc1c2cccc(-c3ccc(Cl)cc3Cl)c2nn1C [I-14, 1-[7-(2,4-Dichloro-phenyl)-2-meth-yl-2H-indazol-3-yl-methyl]-1H-imidazole-2-carboxy-lic acid ethyl ester]
4 | > 10 | 0.427 | – | Cn1nc2c(-c3ccc(Cl)cc3Cl)cccc2c1Cn1nccn1 [I-17, 7-(2,4-Dichloro-phenyl)-2-meth-yl-3-[1,2,3]triazol-2-yl-methyl-2H-indazole]
5 | > 10 | 1.62 | – | COCn1ncnc1C(=O)c1c2cccc(-c3ccc(Cl)cc3Cl)c2nn1C [I-19, [7-(2,4-Dichloro-phenyl)-2-meth-yl-2H-indazol-3-yl]-(2-meth-oxymethyl-2H-[1,2,4]tri-azol-3-yl)-meth-anone]
6 | > 10 | > 10 | – | Cn1nc2c(-c3ccc(Cl)cc3Cl)cccc2c1CC1=NCCN1 [I-29, 7-(2,4-Dichloro-phenyl)-3-(4,5-di-hydro-1H-imidazol-2-yl-methyl)-2-methyl-2H-inda-zole]
7 | > 10 | – | – | CN(C)S(=O)(=O)n1ccnc1C(O)c1c2cccc(-c3ccc(Cl)cc3Cl)c2nn1C (stereo not drawn) [I-35, 2-{[7-(2,4-Dichloro-phenyl)-2-meth-yl-2H-indazol-3-yl]-hydroxy-methyl}-imidazole-1-sulfonicacid dimethyl-amide]
8 | 2.75 | 0.38 | – | Cn1nc2c(-c3ccc(Cl)cc3Cl)cccc2c1Cn1cccn1 [I-37, 7-(2,4-Dichloro-phenyl)-2-meth-yl-3-pyrazol-1-yl-methyl-2H-indazole]
9 | 2.24 | 0.372 | – | Cn1nc2c(-c3ccc(Cl)cc3Cl)cccc2c1Cn1ncnn1 [I-49, 7-(2,4-Dichloro-phenyl)-2-meth-yl-3-tetrazol-2-yl-methyl-2H-indazole]
10 | 2.95 | 0.692 | – | Cn1nc2c(-c3ccc(Cl)cc3Cl)cccc2c1-c1nnn[nH]1 [I-54, 7-(2,4-Dichloro-phenyl)-2-meth-yl-3-(1H-tetrazol-5-yl)-2H-inda-zole]
11 | – | – | 80.8 to 84 | CCOC(=O)Cc1ncn(Cc2c3cccc(-c4ccc(Cl)cc4Cl)c3nn2C)n1 [I-58, {1-[7-(2,4-Dichloro-phenyl)-2-meth-yl-2H-indazol-3-yl-methyl]-1H-[1,2,4]triazol-3-yl}-aceticacid ethyl ester]
12 | – | – | 167.9 to 168.9 | CCOC(=O)Cc1ncnn1Cc1c2cccc(-c3ccc(Cl)cc3Cl)c2nn1C [I-59, {2-[7-(2,4-Dichloro-phenyl)-2-meth-yl-2H-indazol-3-yl-methyl]-2H-[1,2,4]triazol-3-yl}-aceticacid ethyl ester]

Second part, the molecule before the results:

Row | SMILES | IC50 (GABAA α1β2γ2) [µM] | IC50 (GABAA α2β3γ2) [µM] | melting point [°C]
13 | COC(=O)c1cncn1Cc1c2cccc(-c3ccc(Cl)cc3Cl)c2nn1C [I-13, 3-[7-(2,4-Dichloro-phenyl)-2-meth-yl-2H-indazol-3-yl-methyl]-3H-imidazole-4-carboxy-lic acid methyl ester] | – | 0.912 | –
14 | Cn1nc2c(-c3ccc(Cl)cc3Cl)cccc2c1Cn1ccnn1 [I-16, 7-(2,4-Dichloro-phenyl)-2-meth-yl-3-[1,2,3]triazol-1-yl-methyl-2H-indazole] | 5.89 | 1.2 | –
15 | Cn1nc2c(-c3ccc(Cl)cc3Cl)cccc2c1Cc1ncc[nH]1 [I-21, 7-(2,4-Dichloro-phenyl)-3-(1H-imi-dazol-2-ylmethyl)-2-meth-yl-2H-indazole] | 3.55 | 0.55 | –
16 | Cn1nc2c(-c3ccc(Cl)cc3Cl)cccc2c1C(=O)c1nccn1CCO [I-24, [7-(2,4-Dichloro-phenyl)-2-meth-yl-2H-indazol-3-yl]-[1-(2-hydroxy-ethyl)-1H-imi-dazol-2-yl]-methanone] | 3.72 | 0.214 | –
17 | Cn1nc2c(-c3ccc(Cl)cc3Cl)cccc2c1Cc1cnc[nH]1 [I-25, 7-(2,4-Dichloro-phenyl)-3-(3H-imi-dazol-4-ylmethyl)-2-meth-yl-2H-indazole] | > 10 | 1.15 | –
18 | CCOC(c1cnc[nH]1)c1c2cccc(-c3ccc(Cl)cc3Cl)c2nn1C (stereo not drawn) [I-26, 7-(2,4-Dichloro-phenyl)-3-[eth-oxy-(3H-imidazol-4-yl)-meth-yl]-2-methyl-2H-inda-zole] | 6.17 | 0.513 | –
19 | Cn1nc2c(-c3ccc(Cl)cc3Cl)cccc2c1C(O)c1cnc[nH]1 (stereo not drawn) [I-27, [7-(2,4-Dichloro-phenyl)-2-meth-yl-2H-indazol-3-yl]-(3H-imi-dazol-4-yl)-methanol] | 2.34 | 0.55 | –
20 | Cn1nc2c(-c3ccc(Cl)cc3Cl)cccc2c1C(O)c1ncc[nH]1 (stereo not drawn) [I-28, [7-(2,4-Dichloro-phenyl)-2-meth-yl-2H-indazol-3-yl]-(1H-imi-dazol-2-yl)-methanol] | 0.575 | 0.148 | –
21 | Cn1nc2c(-c3ccc(Cl)cc3Cl)cccc2c1C(=O)c1ncc[nH]1 [I-30, [7-(2,4-Dichloro-phenyl)-2-meth-yl-2H-indazol-3-yl]-(1H-imi-dazol-2-yl)-meth-anone] | 4.47 | 0.166 | –
22 | Cn1nnnc1C(O)c1c2cccc(-c3ccc(Cl)cc3Cl)c2nn1C (stereo not drawn) [I-32, [7-(2,4-Dichloro-phenyl)-2-meth-yl-2H-indazol-3-yl]-(meth-yl-1H-tetrazol-5-yl)-meth-anol] | 5.89 | 0.398 | –
23 | Cn1nc2c(-c3ccc(Cl)cc3Cl)cccc2c1-c1cnc[nH]1 [I-36, 7-(2,4-Dichloro-phenyl)-3-(3H-imi-dazol-4-yl)-2-meth-yl-2H-indazolehydrochloride] | 7.24 | 0.145 | –
24 | Cn1nc2c(-c3ccc(Cl)cc3Cl)cccc2c1Cn1ccnc1 [I-40, 7-(2,4-Dichloro-phenyl)-3-imi-dazol-1-ylmethyl-2-meth-yl-2H-indazole] | 4.07 | 1.15 | –
25 | Cn1nc2c(-c3ccc(Cl)cc3Cl)cccc2c1Cn1cncn1 [I-42, 7-(2,4-Dichloro-phenyl)-2-meth-yl-3-[1,2,4]triazol-1-yl-methyl-2H-indazole] | 5.01 | 0.603 | –
26 | Cn1nc2c(-c3ccc(Cl)cc3Cl)cccc2c1Cn1cnnn1 [I-43, 7-(2,4-Dichloro-phenyl)-2-meth-yl-3-tetrazol-1-yl-methyl-2H-indazole] | 8.91 | 0.832 | –
27 | Cn1nc2c(-c3ccc(Cl)cc3Cl)cccc2c1N1C(=O)CCC1=O [I-44, 1-[7-(2,4-Dichloro-phenyl)-2-meth-yl-2H-indazol-3-yl]-pyr-rolidine-2,5-dione] | > 10 | 3.63 | –
28 | Cn1nc2c(-c3ccc(Cl)cc3Cl)cccc2c1-c1ncc[nH]1 [I-45, 7-(2,4-Dichloro-phenyl)-3-(1H-imi-dazol-2-yl)-2-meth-yl-2H-indazole] | 5.62 | 0.537 | –
29 | Cn1nnc(-c2c3cccc(-c4ccc(Cl)cc4Cl)c3nn2C)n1 [I-52, 7-(2,4-Dichloro-phenyl)-2-meth-yl-3-(2-methyl-2H-tetra-zol-5-yl)-2H-indazole] | 3.63 | 0.141 | –
